Measured values from patent publication US20230241023A1, “STABILIZATION OF 1,2,4-TRIOXANE COMPOUNDS BY CHLOROGENIC ACIDS” (Artemiflow GmbH, priority 2020, published 2023).

Assay: Stability of artemisinin in presence of additives (heating in aqueous solution with glucose, 1H NMR quantification)
Assay type: physicochemical
Conditions: glucose 1 mol equivalent, 93° C. for 90 minutes, open to the atmosphere
Text: Solvents were obtained from commercial suppliers and used without further purification. Dried leaves of Artemisia annua were obtained from ArtemiLife Corp. and Artemisinin was previously prepared and purified by crystallization using the protocols detailed in Horváth, Z.; Horosanskaia, E.; Lee, J. W.; Lorenz, H.; Gilmore, K.; Seeberger, P. H.; Seidel-Morgenstern, A. Recovery of Artemisinin from a Complex Reaction Mixture Using Continuous Chromatography and Crystallization. Org. Process Res. Dev. 2015, 19, 624-634. The Artemisinin crystals obtained thereby were ground prior to use.
Ground coffee used in extractions was preground 100% Arabica beans from Café Intención. Coffee was prepared in a Rowenta C T 3818 Milano coffee maker using size 4 coffee filters (Melitta brand). Coffee beans (100% Arabica) were preground from. 100 g of ground coffee was added to the cone coffee filter in the machine and 1350 mL of water used to make the coffee using the single setting. Coffee was then transferred to a thermos, stored at room temperature, and used without further modification.
Two solvents were tested, tap water and premade black coffee. […] All mixtures were heated to 93° C. for 90 minutes in 10 mL glass vials open to the atmosphere. Halfway through heating, 1-2 mL of tap water was added to compensate for evaporation. […]

clean loss of artemisinin (1H NMR) (Example 1 (for comparison): 5 mL tap water): 32% | clean loss of artemisinin (1H NMR) (Example 2 (inventive): 5 mL premade black coffee (source of chlorogenic acids)): 19%
SMILES: C[C@@H]1CC[C@H]2[C@@H](C)C(=O)O[C@@H]3O[C@@]4(C)CC[C@@H]1[C@]32OO4 [artemisinin]
